We go through 5 compounds from patent US10081615B2, “Sulfamate derivative compounds for use in treating or alleviating pain” (Bio-Pharm Solutions Co., Ltd., priority 2013, dated 2018).

Assay [1] deals with Post operation-induced pain model. The experiment in a line: Antiallodynic activity on post operative pain-induced pain model (von Frey). Type of assay: in vivo, Sprague-Dawley rats. The following applies: 0.5 h; for ED50: ip. As to the method: Male Sprague-Dawley rats (Orient Bio, Korea), 300-320 g, total of 201 rats were used (details in Table 7). Rats were habituated at least 3 days before surgery and free access to food and water (room temperature and humidity were maintained at […] and 50±10%, respectively). The process of performing the post-operation model's surgery was adapted from Brennan et al (1996). At first, rats with allodynia (threshold valueless than 8 g) were excluded in Pre-von Frey Test. During the post-operation surgery, rats were anesthetized under gaseous anesthesia with 2% isoflurane. Rats were laid face down on a plate fixed at 37° C. to prevent against hypothermia. The ipsilateral plantar aspect (left side) of the hind paw was prepared in a sterile manner with a 10% povidone-iodine solution. A longitudinal incision (1 cm) (FIG. 2-A) was made with a blade (number 11) through the skin and fascia of the ipsilateral plantar aspect of the foot, starting from 0.5 cm below the proximal edge of the heel and extending toward the toes. Rats' plantar muscles were elevated and incised longitudinally (FIG. 2-B). After hemostasis with gentle pressure, the skin was opposed with 2 mattress sutures (4-0 Dafilon) (FIG. 2-C). The wound site was covered with a 10% povidone-iodine solution gauze and injected with antibiotics (gentamicin, 8 mg/kg, ip). The sutures were removed under halothane anesthesia approximately 30 hours later, at the end of post-operative day 1.
After 2-3 days of recovery, rats with a good response (threshold less than 4 g) in Pre-von Frey Test were selected. According to this response, we made three groups with each group having equal average responses: Group 1, post-operation and drug treated; Group 2, post-operation and vehicle treated; Group 3, no post-operation and vehicle treated. In this study, Group 3 was the sham control (positive) group. The group 2 was used to check for possible failures to generate post-operative pain.
For efficacy measure, the threshold value of group C was assigned 100% efficacy, and the percentage of the threshold values of group A compared to group C (for each different dose level) were calculated as the efficacies. Base on these efficacy values, ED50 was calculated using log fitting. If there was no clear ED50, then we marked the percent efficacy at the highest tested dose or larger than highest tested dose.
For pain threshold test, all animals were placed in a stainless steel meshed chamber and habituated for 30 min in the test box. The tactile sensitivity of the ipsilateral hind paw was measured using the up-and-down method (Dixon, 1980) with seven von Frey monofilaments (0.4, 1, 2, 4, 6, 8, and 15 g) using 3 trials. The 50% paw withdrawal threshold for each paw was calculated using the following formula: [Xth] log=[vFr] log+ky, where [vFr] is the force of the last von Frey filament used, k=0.2249 which is the average interval (in log units) between the von Frey monofilaments, y which is a value that depends upon the pattern of withdrawal responses, and Xth which is the threshold value (Dixon, 1980).
Drugs were dissolved 30% PEG400 for example 60, 0.9% saline for Pregabalin, 20% Tween80 for Tylenol, 0.9% saline for Topiramate. These vehicles were selected depending on the compound's solubility. Intraperitoneal injection (5 μl/g) was done for all drugs.
The relative values compared to the sham (% control) were calculated and shown in Table 8, which show an antiallodynic effect of the compound of examples on Post operation-induced pain model in rats.

In assay [2] the test system is Vincristine-induced pain model. The experiment in a line: Antiallodynic activity in the vincristine-induced pain model (von Frey). In kind it is in vivo, Sprague-Dawley rats. The following applies: rat, intraperitoneal, 0.5 h; for ED50: ip. How it is done:
Male, Sprague-Dawley rats (300-320 g, Nara Bio, Korea) were habituated for 1 week before surgery and allowed free access to food and water throughout the experimentation. Room temperature and humidity were maintained at 24±2° C. and 50±10%, respectively.
The vincristine-induced pain model was established by the procedure of Natsuko et al. (2001) with minor modifications. Vincristine was intravenously infused continuously for 14 days using a mini-osmotic pump as follows: Vincristine sulfate solution (Hospira, Australia) was diluted with 0.9% saline to a final dose of 30 ug/kg. The pumps (Alzet Model 2002, USA) were filled with the vincristine solution and primed by incubation at 37° C. for 4 h before the infusion. Briefly, animals were put under gaseous anesthesia with isoflurane and NO with a 4:4 flow ratio. A catheter made from PE-60 tubing was inserted into an external jugular vein in the rat. Sham controls were prepared in the same manner, with the external jugular vein exposed, but not cut down. Preparation of the vehicle controls were identical to the group treated with compound, except for administration of vehicles without compound in the vehicle control group.
Tactile sensitivity (mechanical allodynia) was evaluated using von Frey monofilaments before and after treatment, and the animals were included in the study only if the withdrawal threshold value was less than 4 g. One week after surgery, vincristine-infused animals (n=6), sham-operated animals (n=12) and vehicle-operated (n=18) animals were tested for tactile sensitivity with von Frey monofilaments with 3 trials in each animal. All animals were placed in a stainless steel mesh chamber and habituated for 30 min in the test cage. The tactile sensitivity for the ipsilateral hind paw was measured using the up-and-down method (Dixon, 1980) with seven von Frey monofilaments (0.4, 1, 2, 4, 6, 8, and 15 g) in 3 trials. The tactile sensitivity test was followed by Dixon's method. The 50% paw withdrawal threshold for each paw was calculated using the following formula: [Xth] log=[vFr] log+ky where [vFr] is the force of the last von Frey used, k=0.2249 which is the average interval (in log units) between the von Frey monofilaments, and y is a value that depends upon the pattern of withdrawal responses (Dixon, 1980).
[…] The test was performed at the peak time of efficacy (0.5 hr) after compound administration.
The relative values compared to the sham (% control) were calculated and are shown in Table 11, which show an antiallodynic effect of the compound of examples in the vincristine-induced pain model in rats.

The mark [3] stands for this setting: Rattus norvegicus, read-out: Post Operation: ED50 mg/kg.

Molecules are shown by their SMILES. Like-named read-outs stand apart in the source and are kept apart here.

For `CC1(C)Oc2ccccc2[C@@H](COS(N)(=O)=O)O1` [Example 2, ((S)-2,2-dimethyl-4H-benzo[d][1,3]dioxin-4-yl)methyl sulfamate], in assay [1] (rat, intraperitoneal, read-out: Post Operation: ED50), the ED50 turned out to be 14.9 mg/kg.
With `CC1(C)Oc2ccccc2[C@H](COS([NH-])(=O)=O)O1.[Na+]` [Example 58, Sodium (R)-(((2,2-dimethyl-4H-benzo[d][1,3]dioxin-4-yl)methoxy)sulfonyl)amide Trihydrate], the ED50 is 6.2 mg/kg in assay [2] and 19.4 mg/kg in assay [1] (setting [3]).
For `CC1(C)Oc2ccccc2C(COS([NH-])(=O)=O)O1.[Na+]` (stereo not drawn) [Example 60, Sodium (((2,2-dimethyl-4H-benzo[d][1,3]dioxin-4-yl)methoxy)sulfonyl)amide Trihydrate], in that order: 2.4 mg/kg and 18.9 mg/kg.
For `[NH-]S(=O)(=O)OC[C@H]1OC2(CCCC2)Oc2ccccc21.[Na+]` [Example 65, Sodium (S)-(((4H-spiro[benzo[d][1,3]dioxine-2,1′-cyclopentan]-4-yl)methoxy)sulfonyl)amide], in that order: 8.2 mg/kg and 31.8 mg/kg.
Regarding `CC1(C)Oc2ccccc2[C@H](COS([NH-])(=O)=O)O1.[K+]` [Example 70, Potassium (R)-(((2,2-dimethyl-4H-benzo[d][1,3]dioxin-4-yl)methoxy)sulfonyl)amide], the “Vincristine model: effect (%) compared to control” value in assay [2] (2.4 mg/kg administered) is “(36.2%, 0.5 h)”. Also, in assay [1] (rat, intraperitoneal, 18.9 mg/kg administered), the “Post Operation: effect (%) compared to control” value is given as “(22.0%, 0.5 h)”.
